Reference: US11865176B2, “Compositions and methods of modulating anti-tumor immunity” (Dana-Farber Cancer Institute, Inc., priority 2016, dated 2024)

Legend:
[1] = test system: splenic T cells (Tconv, CD8+, Treg); assay: Cell co-culture and cytokine production ex vivo; assay type: cell-based, mouse
Method: Naïve or KP tumor bearing C57BL/6 mice were sacrificed and total splenocytes were harvested. Spleens were digested with collagenase D (Roche) and Dnase I (Roche) at 37° C. for 30 min, followed by 1×ACS lysis buffer (Biolegend) incubation to lyse red blood cells. The collected total splenocytes were stained with the fluorochome-conjugated cell surface markers CD3, CD4, CD8 and CD25 to isolate different T cell subpopulations, including conventional T cell Tconv (CD3+CD4+[…]), Treg (CD3+CD4+CD25+), and CD8+(CD3+CD8+) using BD FACSAria II SORP cell sorter (BD Bioscience). DAPI (4′,6-diamidino-2-phenylindole) staining was used to exclude dead cells. Sorted cells were cultured in 96-well plates pre-coated with CD3 antibody (eBioscience) and treated with trilaciclib in the presence of CD28 (eBioscience). Cells were collected 3 days after culturing and cytokine production of IFNγ and IL-2 was determined by intracellular staining and analyzed on BD LSRFortessa (BD Bioscience).

[2] = test system: tumor-infiltrating CD3+ T cells; assay: Single-cell RNA-seq of tumor-infiltrating CD3+ T cells from KP GEMM lung tumors; assay type: in vivo, mouse
Description: Library preparation and pre-processing: Single-cell suspensions from KrasG^12D/+Trp53^fl/fl GEMM mice treated with trilaciclib were isolated as described for tumor-infiltrating immune cells, with modifications. After isolation, live cells were stained and sorted for the CD45+CD3+DAPI-population and plated at one cell/well of a skirted twin.tec 96-well plate (Eppendorf) containslxTCL buffer (Qiagen cat #1031576) spiked with ERCC (Ambion, 1:2,000,000 dilution ratio). A total of four 96-well plates were generated, two plates with and two plates without ERCC spike-ins. After sorting, full-length RNA-seq from isolated single cells was performed according to SMART-seq2 protocol with modifications. Briefly, total RNA was purified using RNA-SPRI beads. Poly(A)+ mRNA was converted to cDNA for amplification. The converted cDNA transcript was subject to barcoding specific to each sample using transposon-based fragmentation that used dual-indexing. For single-cell sequencing, each cell was given its own combination of barcodes. Barcoded cDNA fragments were then pooled prior to sequencing. Sequencing was carried out as paired-end (PE) 2×36 bp with an additional 8 cycles for each index on NexSeq 500 desktop sequencer (Illumina). To obtain quantitative mapping information, PE reads were mapped to the mouse genome (mm9), concatenated with ERCC sequences for spiked-in samples, by STAR (56). Estimated transcript counts and transcripts per million (TPM) for the mouse Gencode vM1 annotation, concatenated with ERCC sequence information for spiked-in samples, were obtained using the pseudo-aligner Kallisto (57). Aggregated and library scaled TPM values for genes were obtained according to the methods described (58) and were used in further downstream differential distribution, Gene Ontology and cell cycle analysis. […] Genes were considered not expressed if TPM<1 and were subsequently removed if not detected in at least 10% of remaining cells. The single-cell RNA-seq results have been deposited in NCBI's Gene Expression Omnibus and are accessible through GEO Series accession number GSE89477 (https://www.ncbi.nlm.nih.gov/geo/query/acc.cgi?acc=GSE89477).
We used a multi-step approach using the R package SCONE to identify the optimal normalization strategy and account for possible batch effects, observed and hidden technical covariates (59). […] Next, these genes were used in the SCONE framework as negative control genes for unwanted variation for all plates. We continued with highest scored normalization strategy according to SCONE metrics, which included adjusting for batch and biological effects, removal of observed technical variation based on previously identified quality metrics, scaling for library size with DESeq, and imputing drop-out events using a combined clustering and probabilistic scoring algorithm.
To assign cells to a cell-cycle stage we applied the cyclone classification tool as previously described (60).
Subsequently, we combined two approaches. […] Next, these genes were used to perform PCA and the 100 most correlated and anti-correlated genes for the first 5 principal components were retained for reducing dimensionality and separating cells in gene expression space with t-SNE. Distinct groups were identified applying density based clustering (dbscan) on the t-SNE generated coordinates, resulting in three (3) groups of cells.
Genes that display differential distribution between previously identified groups or between treatments were discovered by performing pairwise comparisons with the scDD (http://biorxiv.org/content/early/2015/12/29/035501) package in R. Enriched biological processes were identified using the online GOrilla tool (http://bmcbioinformatics.biomedcentral.com/articles/10.1186/1471-2105-10-48).

[3] = test system: MC38; assay: MC38 syngeneic colon adenocarcinoma model; assay type: in vivo, mouse
Method: For syngeneic models, MC38 and CT26 cells were injected into 6-8 week C57BL/6 or Balb/c female mice subcutaneously, respectively. Vehicle control, CDK4/6 inhibitors (trilaciclib or palbociclib) were treated alone or together with PD-1 antibody starting at the indicated time point, using an intermittent dosing schedule of 3 days on, 4 days off until experimental endpoint. PD-1 antibody was administered 3 times a week (Monday, Wednesday and Friday) at 200 μg/mouse through I.P. injection.

CN1CCN(c2ccc(Nc3ncc4cc5n(c4n3)C3(CCCCC3)CNC5=O)nc2)CC1 [trilaciclib]
IL-2 production ([1]; Tconv cells treated ex vivo, 3 days, naïve vs tumor-bearing mice): increased IL-2 production only in cells from tumor-bearing mice
increase of IFNγ production ([1]; splenic CD8+ T cells from tumor-bearing mice co-cultured with Tregs): ~10 fold
log2(G1T28 vs vehicle) ([2]; gene Aifl): Aifl^65 1.045
log2(G1T28 vs vehicle) ([2]; gene Ccl2): Ccl2^63, 690.6
log2(G1T28 vs vehicle) ([2]; gene Ccl5): Ccl5^63 0.7416
log2(G1T28 vs vehicle) ([2]; gene Ccna2): Ccna2^71 −1.194
log2(G1T28 vs vehicle) ([2]; gene Ccnd1): Ccnd1^67 0.8223
log2(G1T28 vs vehicle) ([2]; gene Ccr2): Ccr2^61 3.091
log2(G1T28 vs vehicle) ([2]; gene Cd22): Cd22^72 −1.232
log2(G1T28 vs vehicle) ([2]; gene Cd86): Cd86^70 0.621
log2(G1T28 vs vehicle) ([2]; gene Clcf1): Clcf1^63 1.47
log2(G1T28 vs vehicle) ([2]; gene Csfl): Csfl^63 0.5966
log2(G1T28 vs vehicle) ([2]; gene Cx3cr1): Cx3cr1^22 1.233
log2(G1T28 vs vehicle) ([2]; gene Cxcl1): Cxcl1^68 0.7175
log2(G1T28 vs vehicle) ([2]; gene Ece1): Ece1^62 2.974
log2(G1T28 vs vehicle) ([2]; gene Il2ra): Il2ra^66 0.9413
log2(G1T28 vs vehicle) ([2]; gene Il7r): Il7r^64 1.461
log2(G1T28 vs vehicle) ([2]; gene Tnfsf8): Tnfsf8^63 1.037
IL-2 signaling activation ([2]; group 3, and group 1 to a lesser extent): significantly increased IL-2 signaling activation
proportion of T cells in the G1 phase ([2]; groups 1 and 3): increased the proportion of T cells in the G1 phase
increase in CD4+ IL-2 production ([3]; TILs, trilaciclib added to PD-1 blockade, day 17): ~2 fold
tumor growth ([3]; intermittent trilaciclib (100 mg/kg, 3 days on, 4 days off) added to PD-1 blockade): nearly eliminated tumor growth
increase in levels of IFNγ in CD8+ TILs ([3]; trilaciclib added to PD-1 blockade, day 17): ~10 fold
